Reference: ChEMBL document CHEMBL5233241, “A medicinal chemistry perspective of drug repositioning: Recent advances and challenges in drug discovery” (Eur J Med Chem, 2020)
Structures can show the parent of a compound that is named as a salt.

How the values were obtained:
[1] = tested on: Mus musculus; assay: Anti-alzheimer activity against young APP/PS1 mouse model assessed as reduction in amyloid beta (1 to 40 residues) level at 100 mg/kg, po administered daily and measured for 14 days; format: functional; set-up: scale not given: the % may be the effect or the level left; settings: time 14 day
[2] = tested on: Mus musculus; assay: Anti-alzheimer activity against old APP/PS1 mouse model assessed as reduction in amyloid beta (1 to 40 residues) level at 100 mg/kg, po administered daily and measured for 14 days; format: functional; set-up: scale not given: the % may be the effect or the level left; settings: time 14 day
[3] = tested on: Mus musculus; assay: Anti-alzheimer activity against young APP/PS1 mouse model assessed as reduction in amyloid beta (1 to 42 residues) level at 100 mg/kg, po administered daily and measured for 14 days; format: functional; set-up: scale not given: the % may be the effect or the level left; settings: time 14 day
[4] = tested on: Mus musculus; assay: Anti-alzheimer activity against old APP/PS1 mouse model assessed as reduction in amyloid beta (1 to 42 residues) level at 100 mg/kg, po administered daily and measured for 14 days; format: functional; set-up: scale not given: the % may be the effect or the level left; settings: time 14 day
[5] = tested on: Mus musculus; assay: Anti-alzheimer activity against APP/PS1 mouse model assessed as reduction in insoluble amyloid beta level at 100 mg/kg, po administered daily and measured for 90 days; format: functional; set-up: scale not given: the % may be the effect or the level left; settings: time 90 day
[6] = tested on: Plasmodium; assay: Antimalarial activity against Plasmodium; format: functional, organism-based
[7] = target: T1, Tyrosinase (Agaricus bisporus, UniProt O42713); assay: Inhibition of mushroom tyrosinase
T1 sequence (O42713 whole entry): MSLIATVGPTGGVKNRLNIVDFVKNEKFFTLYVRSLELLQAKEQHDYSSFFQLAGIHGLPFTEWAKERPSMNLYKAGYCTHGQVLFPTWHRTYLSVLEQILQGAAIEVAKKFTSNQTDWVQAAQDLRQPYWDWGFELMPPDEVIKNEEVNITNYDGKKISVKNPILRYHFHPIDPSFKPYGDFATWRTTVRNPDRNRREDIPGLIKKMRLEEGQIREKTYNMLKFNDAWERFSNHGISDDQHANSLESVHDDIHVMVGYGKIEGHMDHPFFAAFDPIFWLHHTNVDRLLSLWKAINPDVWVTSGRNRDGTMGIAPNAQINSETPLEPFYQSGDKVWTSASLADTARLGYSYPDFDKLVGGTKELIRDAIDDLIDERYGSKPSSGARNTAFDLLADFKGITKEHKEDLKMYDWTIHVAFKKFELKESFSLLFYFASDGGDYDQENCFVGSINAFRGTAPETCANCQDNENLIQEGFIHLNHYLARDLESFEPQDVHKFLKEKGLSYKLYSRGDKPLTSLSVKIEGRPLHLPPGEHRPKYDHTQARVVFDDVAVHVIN

[8] = tested on: Middle East respiratory syndrome-related coronavirus; assay: Antiviral activity against MERS-CoV/KOR/KNIH/002_05_2015 infected in human Huh-7 cells assessed as reduction in virus-induced cytopathic effect incubated for 3 days by CellTiter 96 aqueous one solution cell proliferation assay; format: functional, organism-based; settings: KOR/KNIH/002_05_2015, Huh-7, 72 h
[9] = Cytotoxicity against human Huh-7 cells; format: toxicity, cell-based
[10] = tested on: Mus musculus; assay: Anti-alzheimer activity against APP/PSEN1 transgenic mouse model assessed as fold reduction in amyloid beta plaques at 10 mg/kg administered intranasally every other day for 2 months; format: functional; settings: route nas, 1460 h
[11] = Cytotoxicity against human COV318 cells incubated for 120 hrs by SRB assay; format: functional, cell-based; settings: COV318, 120 h
[12] = Cytotoxicity against human COV362 cells incubated for 120 hrs by SRB assay; format: functional, cell-based; settings: COV362, 120 h
[13] = tested on: OVCAR-3; assay: Cytotoxicity against human OVCAR-3 cells incubated for 72 hrs by SRB assay; format: functional, cell-based; settings: OVCAR-3, 72 h
[14] = tested on: OVCAR-4; assay: Cytotoxicity against human OVCAR-4 cells incubated for 72 hrs by SRB assay; format: functional, cell-based; settings: OVCAR-4, 72 h
[15] = Cytotoxicity against human OVSAHO cells incubated for 72 hrs by SRB assay; format: functional, cell-based
[16] = tested on: B16-F10; assay: Inhibition of melanin production in mouse B16-F10 cells assessed as reduction in melanin content at 50 uM relative to control; format: functional
[17] = tested on: Plasmodium falciparum; assay: Antimalarial activity against Plasmodium falciparum W2; format: functional, organism-based
[18] = tested on: Middle East respiratory syndrome-related coronavirus; assay: Antiviral activity against MERS-CoV isolate EMC/2012 infected in human Huh-7 cells assessed as reduction in virus-induced cytopathic effect incubated for 2 days by MTS assay; format: functional, organism-based; settings: EMC/2012, Huh-7, 48 h
[19] = tested on: SARS-CoV; assay: Antiviral activity against SARS-CoV isolate Frankfurt-1 infected in Vero E6 cells assessed as reduction in virus-induced cytopathic effect incubated for 3 days by MTS assay; format: functional, organism-based; settings: Severe acute respiratory syndrome-related coronavirus, Frankfurt-1, Vero C1008, 72 h
[20] = tested on: Human coronavirus 229E; assay: Antiviral activity against hCoV-229E expressing GFP infected in human Huh-7 cells assessed as reduction in virus-induced cytopathic effect incubated for 24 hrs by MTS assay; format: functional, organism-based; settings: Huh-7, 24 h
[21] = Inhibition of Wnt signalling in HEK293T cells; format: cell-based; settings: Homo sapiens, HEK-293T
[22] = Inhibition of Wnt signalling in human BT-20 cells; format: cell-based
[23] = tested on: Dengue virus; assay: Antiviral activity against DENV assessed as inhibition of viral replication relative to control; format: functional
[24] = tested on: SARS-CoV; assay: Antiviral activity against SARS-CoV; format: functional, organism-based; settings: Severe acute respiratory syndrome-related coronavirus
[25] = tested on: Human coronavirus 229E; assay: Antiviral activity against hCoV-229E; format: functional, organism-based
[26] = Inhibition of melanin production in mouse B16 cells assessed as reduction in melanin content at up to 20 uM relative to control; format: functional

Compound: C=C(c1ccc(C(=O)O)cc1)c1cc2c(cc1C)C(C)(C)CCC2(C)C [BEXAROTENE]
- Activity [1]: 25%
- Activity [2]: 25%
- Activity [3]: 25%
- Activity [4]: 25%
- Activity [5]: 30%

Compound: N=C(N)c1ccc(OCCCCCOc2ccc(C(=N)N)cc2)cc1
- IC50 [6]: < 0.5 µM

Compound: OC[C@H]1O[C@@H](n2cnc3c(S)ncnc32)[C@H](O)[C@@H]1O [THIOINOSINE]
- Ki [7]: 8 µM

Compound: Cn1cc[nH]c1=S [METHIMAZOLE]
- IC50 [7]: 114 µM

Compound: Cc1cc(=O)[nH]c(=S)[nH]1 [METHYLTHIOURACIL]
- IC50 [7]: 142 µM

Compound: CC(=O)c1ccc2c(c1)N(CCCN1CCN(CCO)CC1)c1ccccc1S2 [ACETOPHENAZINE]
- EC50 [8]: 11.2 µM
- CC50 [9]: 23.6 µM

Compound: CCCCc1nc(Cl)c(CO)n1Cc1ccc(-c2ccccc2-c2nnn[nH]2)cc1 [LOSARTAN]
- fold change (FC) [10]: 3.7

Compound: C[C@]12C=CC(=O)C=C1CC[C@@H]1[C@@H]2[C@@H](O)C[C@@]2(C)[C@H]1CC[C@]2(O)C(=O)CO [PREDNISOLONE]
- IC50 [11]: 1.1 µM
- IC50 [12]: 1.1 µM
- IC50 [13]: 1.1 µM
- IC50 [14]: 1.1 µM
- IC50 [15]: 1.1 µM

Compound: Sc1ncnc2nc[nH]c12 [MERCAPTOPURINE ANHYDROUS]
- Ki [7]: 16 µM

Compound: Nc1nc2nc[nH]c2c(=S)[nH]1 [THIOGUANINE]
- Ki [7]: 52 µM
- inhibition at 50 µM [16]: 57%

Compound: OCCOCCN1CCN(C(c2ccccc2)c2ccc(Cl)cc2)CC1 (stereo unspecified) [HYDROXYZINE]
- EC50 [8]: 14.4 µM
- CC50 [9]: > 50 µM

Compound: CN1CCC[C@@H]1CCO[C@](C)(c1ccccc1)c1ccc(Cl)cc1 [CLEMASTINE FUMARATE]
- IC50 [6]: 2.2 µM

Compound: CCCc1cc(=O)[nH]c(=S)[nH]1 [PROPYLTHIOURACIL]
- IC50 [7]: 170 µM

Compound: O=c1cc[nH]c(=S)[nH]1 [THIOURACIL]
- IC50 [7]: 128 µM

Compound: COc1ccc2[nH]c([S@@+]([O-])Cc3ncc(C)c(OC)c3C)nc2c1
- IC50 [6]: 0.29 µM

Compound: COc1ccc(-c2nc(-c3cc(C(F)(F)F)cc(C(F)(F)F)c3)n(Cc3ccc(C(N)=O)cc3)c2-c2ccc(OC)cc2)cc1
- EC50 [17]: 4.5 µM

Compound: CN(C)CCCN1c2ccccc2Sc2ccc(Cl)cc21 [CHLORPROMAZINE]
- EC50 [18]: 4.9 µM
- EC50 [19]: 8.8 µM
- EC50 [20]: 2.5 µM

Compound: CN(C)CC/C=C1\c2ccccc2CSc2ccccc21 [DOTHIEPIN HYDROCHLORIDE]
- EC50 [8]: 3.4 µM
- CC50 [9]: 28.9 µM

Compound: CCN(CC)CCCC(C)Nc1ccnc2cc(Cl)ccc12 (stereo unspecified) [CHLOROQUINE]
- EC50 [18]: 3 µM
- EC50 [19]: 4.1 µM

Compound: CC(C)/N=c1\cc2n(-c3ccc(Cl)cc3)c3ccccc3nc-2cc1Nc1ccc(Cl)cc1 [CLOFAZIMINE]
- IC50 [21]: 6 µM
- IC50 [22]: 7 µM

Compound: Cc1cccc(C)c1OCC(=O)N[C@@H](Cc1ccccc1)[C@@H](O)C[C@H](Cc1ccccc1)NC(=O)[C@H](C(C)C)N1CCCNC1=O [LOPINAVIR]
- EC50 [18]: 8 µM

Compound: COc1ccc(C2=NC(c3ccc(Cl)cc3)C(c3ccc(Cl)cc3)N2C(=O)N2CCNC(=O)C2)c(OC(C)C)c1 (stereo unspecified)
- EC50 [8]: 36.9 µM
- CC50 [9]: 26.8 µM

Compound: CCOC(=O)n1ccn(C)c1=S [CARBIMAZOLE]
- IC50 [7]: 186 µM

Compound: CC(=O)Nc1ccc(/C=N/NC(N)=S)cc1 [AMITHIOZONE]
- IC50 [7]: 14 µM

Compound: CCCc1nc2c(C)cc(-c3nc4ccccc4n3C)cc2n1Cc1ccc(-c2ccccc2C(=O)O)cc1
- IC50 [6]: 0.025 µM

Compound: COc1ccc2[nH]c([S+]([O-])Cc3ncc(C)c(OC)c3C)nc2c1 (stereo unspecified) [OMEPRAZOLE]
- IC50 [6]: < 1 µM

Compound: C=C[C@H]1CN2CC[C@H]1C[C@H]2[C@H](O)c1ccnc2ccc(OC)cc12 [QUININE]
- inhibition (INH) [23]: 80%

Compound: CCN(CC)Cc1cc(Nc2ccnc3cc(Cl)ccc23)ccc1O
- EC50 [8]: 2.1 µM

Compound: O=C(c1ccc(OCCN2CCCCC2)cc1)c1c(-c2ccc(O)cc2)sc2cc(O)ccc12 [RALOXIFENE HYDROCHLORIDE]
- IC50 [6]: < 0.5 µM

Compound: CN(C)C(=O)C(CCN1CCC(O)(c2ccc(Cl)cc2)CC1)(c1ccccc1)c1ccccc1 [LOPERAMIDE]
- EC50 [18]: 4.8 µM
- EC50 [19]: 5.9 µM
- EC50 [20]: 4 µM

Compound: CN1CCN(c2nc(C3=C(c4c[nH]c5ccccc45)C(=O)NC3=O)c3ccccc3n2)CC1 [SOTRASTAURIN]
- EC50 [8]: 9.7 µM
- CC50 [9]: > 50 µM

Compound: Cn1cnc([N+](=O)[O-])c1Sc1ncnc2nc[nH]c12 [AZATHIOPRINE]
- Ki [7]: > 1000 µM

Compound: COc1ccc2c(c1)N(C[C@H](C)CN(C)C)c1ccccc1S2 [LEVOMEPROMAZINE]
- EC50 [8]: 2.5 µM
- CC50 [9]: 24.5 µM

Compound: CN1CCN(CCOc2cc(OC3CCOCC3)c3c(Nc4c(Cl)ccc5c4OCO5)ncnc3c2)CC1 [SARACATINIB]
- CC50 [9]: > 50 µM
- EC50 [24]: 2.4 µM
- EC50 [25]: 5.1 µM

Compound: CCN(CC)CCOc1ccc(/C(=C(/Cl)c2ccccc2)c2ccccc2)cc1 [ENCLOMIPHENE CITRATE]
- IC50 [6]: 0.22 µM

Compound: N=C(N)N/N=C1C=C/C(=N\NC(N)=S)C=C\1 [AMBAZONE]
- IC50 [7]: 15 µM
- inhibition (INH) [26]: 20%

Compound: C/C=C/C[C@@H](C)[C@@H](O)[C@H]1C(=O)N[C@@H](CC)C(=O)N(C)CC(=O)N(C)[C@@H](CC(C)C)C(=O)N[C@@H](C(C)C)C(=O)N(C)[C@@H](CC(C)C)C(=O)N[C@@H](C)C(=O)N[C@H](C)C(=O)N(C)[C@@H](CC(C)C)C(=O)N(C)[C@@H](CC(C)C)C(=O)N(C)[C@@H](C(C)C)C(=O)N1C [CYCLOSPORINE]
- IC50 [6]: 1.7 µM
